Data taken from patent US8608842B2, “Infrared absorbing composition, infrared absorbing ink, recorded article, image recording method, and image detecting method” (FUJIFILM Corporation, priority 2010, dated 2013).
Like-named read-outs stand apart in the source and are kept apart here.

Key:
Assay type in all cases: physicochemical
[1] = Solubility of IR coloring material in toluene at 25° C.
Experimental: Specifics are as follows.
First, a tetrahydrofuran (THF) solution prepared by adding the IR coloring material to TI-IF is measured by a spectrophotometer and a calibration curve is constructed. Next, a liquid is prepared by adding the IR coloring material to toluene to the level that there is a part of the coloring material left undissolved. The resulting liquid is subjected to ultrasonication for 10 minutes while being maintained at 25° C., and allowed to stand overnight at 25° C. The THF solution obtained after the standing is filtered using a 0.2 μm filter. The filtrate is diluted so that it falls within the linear range of the calibration curve, the absorbance is measured, and quantification is made using the calibration curve.
The solubility shown in Table 1 was measured according to the method described below. Specifics are as follows.
First, the THF solution prepared by adding the IR coloring material to tetrahydrofuran (THF) was measured by a spectrophotometer, and the calibration curve was established. Next, a liquid was prepared by adding the IR coloring material to toluene to the level that there is a part of coloring material left undissolved. The resulting liquid was subjected to ultrasonication for 10 minutes while being kept at 25° C., and allowed to stand overnight at 25° C. The THF solution obtained after the standing was filtered using a 0.2 μm filter. The filtrate was diluted so that it falls within the linear range of the calibration curve, and the absorbance was measured. Based on the measured value, the solubility was quantified using the calibration curve.

[2] = Ultraviolet curable ink of Example 4: reflected light of mark for copy protection, before and after xenon irradiation; conditions: xenon light of 70,000 lux, 72 hours; variation compared to the value before irradiation
Experimental: By mixing the components of the composition shown below, an ultraviolet curable ink having an infrared absorbing property was prepared.
By using the ultraviolet curable ink thus obtained, a mark for copy protection was printed on the same base paper as that used in Example 1 by Gravure printing. On top of the printed mark for copy protection, each of the three kinds of a process ink (FDOL Yellow, FDOL Magenta, and FDOL Cyan, trade names, manufactured by TOYO INK MFG. CO., LTD.) was applied as a layer by Gravure printing, or a mixture ink in which the three kinds of a process ink are mixed was applied as a layer by Gravure printing to hide the mark for copy protection, thus obtaining a printed article.
The mark for copy protection that is hidden by the process ink was irradiated with infrared light using a linear sensor (trade name: TCD1500C, manufactured by Toshiba) in which the infrared cut-off filter of linear sensor was replaced with an infrared transmitting filter (trade name: IR83, manufactured by Hoya) as a detection device, and the reflected light was detected simultaneously.
The reflection light intensity in the area of the mark for copy protection at the time of detecting the mark was divided by the reflection light intensity of the area outside the mark for copy protection. The resulting value of the comparative infrared absorbing agent A was set to 1, and a ratio of the resulting value with respect to the resulting value of the comparative infrared absorbing agent A was calculated for each compound.
In addition, the obtained printed article was irradiated continuously with xenon light of 70,000 lux for 72 hours by using a Xenon lamp. After the irradiation, similar to above, the reflection light intensity of the area of the mark for copy protection was divided by the reflection light intensity of the area outside the mark for copy protection, and the variation ratio [%] compared to the value before the irradiation was calculated to use it as an index for evaluation of light resistance.

[3] = Bar code pattern reading (PCS) of printed article before and after xenon light irradiation (light resistance); conditions: xenon light of 70,000 lux, 200 hours
Experimental: By mixing the components of the composition shown below, the infrared absorbing printing ink (1) was prepared.
By using each of the infrared absorbing printing ink obtained above, a bar code pattern was formed on a regular paper (trade name: MP-120, manufactured by PLUS Corporation), i.e., a base paper, by Gravure printing.
Subsequently, on the formed bar code pattern, another bar code pattern was additionally formed by using the infrared absorbing ink (2) having the composition shown below.
Next, on top of the bar code patterns formed by disposing two layers, three kinds of process inks having infrared transmittance (FDOL Yellow, FDOL Magenta, and FDOL Cyan, manufactured by TOYO INK MFG. CO., LTD. (trade names, manufactured by TOYO INK MFG. CO., LTD.) were further applied by Gravure printing to form a colored layer made of three visible colors (cyan, magenta, and yellow). As a result, a printed article having a bar code pattern disposed inside the matter was produced.
Two kinds of semiconductor laser beam having wavelengths of 830 nm and 905 nm respectively were irradiated onto the thus obtained printed article, and the detection was made by using a filter which cuts off the emission light having wavelength of 950 nm or less. As a result, it was possible to detect the pattern formed by the infrared absorbing ink.
Subsequently, xenon light of 70,000 lux was irradiated continuously for 200 hours onto the printed article by using a xenon lamp. After that, the reading state of the bar code pattern after the irradiation was evaluated. For the evaluation, PCS (print•contrast•signal) of 0.6 or more was evaluated as “good,” and PCS (print•contrast•signal) of less than 0.6 was evaluated as “bad.” The evaluation results are shown in Table 2 below.
The printed article was prepared in the same manner as Example 1 except that the solvent (a mixture solvent of toluene and methyl isobutyl ketone) in the composition of the infrared absorbing ink (1) and (2) is replaced with n-octane (SP value: 7.6), butyl acetate (SP value: 8.5), or isopropyl alcohol (IPA; SP values: 11.5), and evaluated.
The comparative printed article was prepared in the same manner as Example 1 except that the solvent (a mixture solvent of toluene and methyl isobutyl ketone) in the composition of the infrared absorbing ink (1) and (2) is replaced with n-pentane (SP value: 7.0; Example 2) or ethanol (SP value: 12.7; Example 3), and evaluated.

[4] = Example 2, ink solvent n-pentane (SP value: 7.0)
[5] = Example 3, ink solvent ethanol (SP value: 12.7)
[6] = ink solvent IPA (SP value: 11.5)
[7] = ink solvent butyl acetate (SP value: 8.5)
[8] = ink solvent n-octane (SP value: 7.6)
[9] = ink solvent toluene/methyl isobutyl ketone = 70/30

| Compound | Solubility [mg/ml] Solvent: toluene ([1]; toluene, 25° C.) [mg/mL] | Variation amount after irradiation [%] [2] [%] | Reading after irradiation [3, 4] | Reading after irradiation [3, 5] | Reading after irradiation [3, 6] | Reading after irradiation [3, 7] | Reading after irradiation [3, 8] | Reading after irradiation [3, 9] | Solubility [mg/ml] Solvent: toluene [1] [mg/mL] |
| --- | --- | --- | --- | --- | --- | --- | --- | --- | --- |
| CCOc1c2c(c(OCC)c3ccccc13)-c1nc-2nc2[n-]c(nc3nc(nc4[n-]c(n1)c1c(OCC)c5ccccc5c(OCC)c41)-c1c-3c(OCC)c3ccccc3c1OCC)c1c(OCC)c3ccccc3c(OCC)c21.[Cu+2] [Compound 23] | 1.75 | 4 | Bad (PCS (print•contrast•signal) of less than 0.6 was evaluated as “bad.”) | Bad (PCS (print•contrast•signal) of less than 0.6 was evaluated as “bad.”) | Good (PCS (print•contrast•signal) of 0.6 or more was evaluated as “good,”) | Good (PCS (print•contrast•signal) of 0.6 or more was evaluated as “good,”) | Good (PCS (print•contrast•signal) of 0.6 or more was evaluated as “good,”) | Good (PCS (print•contrast•signal) of 0.6 or more was evaluated as “good,”) |  |
| CCCCOc1c2c(c(OCCCC)c3ccccc13)C1=Nc3c4c(OCCCC)c5ccccc5c(OCCCC)c4c4[n]3[Cu][n]3c(c5c(OCCCC)c6ccccc6c(OCCCC)c5c3=NC3=NC(=N4)c4c3c(OCCCC)c3ccccc3c4OCCCC)=NC2=N1 [Compound 24] | 16 | 3 | Bad (PCS (print•contrast•signal) of less than 0.6 was evaluated as “bad.”) | Bad (PCS (print•contrast•signal) of less than 0.6 was evaluated as “bad.”) | Good (PCS (print•contrast•signal) of 0.6 or more was evaluated as “good,”) | Good (PCS (print•contrast•signal) of 0.6 or more was evaluated as “good,”) | Good (PCS (print•contrast•signal) of 0.6 or more was evaluated as “good,”) | Good (PCS (print•contrast•signal) of 0.6 or more was evaluated as “good,”) |  |
| CCCCCCCCOc1c2c(c(OCCCCCCCC)c3ccccc13)C1=Nc3c4c(OCCCCCCCC)c5ccccc5c(OCCCCCCCC)c4c4[n]3[Cu][n]3c(c5c(OCCCCCCCC)c6ccccc6c(OCCCCCCCC)c5c3=NC3=NC(=N4)c4c3c(OCCCCCCCC)c3ccccc3c4OCCCCCCCC)=NC2=N1 [Compound 25] | 27 | 2 | Bad (PCS (print•contrast•signal) of less than 0.6 was evaluated as “bad.”) | Bad (PCS (print•contrast•signal) of less than 0.6 was evaluated as “bad.”) | Good (PCS (print•contrast•signal) of 0.6 or more was evaluated as “good,”) | Good (PCS (print•contrast•signal) of 0.6 or more was evaluated as “good,”) | Good (PCS (print•contrast•signal) of 0.6 or more was evaluated as “good,”) | Good (PCS (print•contrast•signal) of 0.6 or more was evaluated as “good,”) |  |
| CCCCCCCCOc1c2c(c(OCCCCCCCC)c3ccccc13)C1=Nc3c4c(OCCCCCCCC)c5ccccc5c(OCCCCCCCC)c4c4[n]3[Zn][n]3c(c5c(OCCCCCCCC)c6ccccc6c(OCCCCCCCC)c5c3=NC3=NC(=N4)c4c3c(OCCCCCCCC)c3ccccc3c4OCCCCCCCC)=NC2=N1 [Compound 27] |  | 4 | Bad (PCS (print•contrast•signal) of less than 0.6 was evaluated as “bad.”) | Bad (PCS (print•contrast•signal) of less than 0.6 was evaluated as “bad.”) | Good (PCS (print•contrast•signal) of 0.6 or more was evaluated as “good,”) | Good (PCS (print•contrast•signal) of 0.6 or more was evaluated as “good,”) | Good (PCS (print•contrast•signal) of 0.6 or more was evaluated as “good,”) | Good (PCS (print•contrast•signal) of 0.6 or more was evaluated as “good,”) | 25 |
| Nc1ccccc1Sc1c2c(c(Sc3ccccc3N)c3c1C1=Nc4c5c(Sc6ccccc6N)c6c(c(Sc7ccccc7N)c5c5[n]4[Cu][n]4c(c7c(Sc8ccccc8N)c8c(c(Sc9ccccc9N)c7c4=NC4=NC(=N5)c5c(Sc7ccccc7N)c7c(c(Sc9ccccc9N)c54)NC4C=CC=CC4S7)SC4C=CC=CC4N8)=NC3=N1)NC1C=CC=CC1S6)SC1C=CC=CC1N2 (stereo not drawn) [Compound 69] | 12 | 4 | Bad (PCS (print•contrast•signal) of less than 0.6 was evaluated as “bad.”) | Bad (PCS (print•contrast•signal) of less than 0.6 was evaluated as “bad.”) | Good (PCS (print•contrast•signal) of 0.6 or more was evaluated as “good,”) | Good (PCS (print•contrast•signal) of 0.6 or more was evaluated as “good,”) | Good (PCS (print•contrast•signal) of 0.6 or more was evaluated as “good,”) | Good (PCS (print•contrast•signal) of 0.6 or more was evaluated as “good,”) |  |
| Nc1ccccc1Sc1c2c(c(Sc3ccccc3N)c3c1C1=Nc4c5c(Sc6ccccc6N)c6c(c(Sc7ccccc7N)c5c5[n]4[V](=[O])[n]4c(c7c(Sc8ccccc8N)c8c(c(Sc9ccccc9N)c7c4=NC4=NC(=N5)c5c(Sc7ccccc7N)c7c(c(Sc9ccccc9N)c54)NC4C=CC=CC4S7)SC4C=CC=CC4N8)=NC3=N1)NC1C=CC=CC1S6)SC1C=CC=CC1N2 (stereo not drawn) [Compound 71] | 16 | 3 | Bad (PCS (print•contrast•signal) of less than 0.6 was evaluated as “bad.”) | Bad (PCS (print•contrast•signal) of less than 0.6 was evaluated as “bad.”) | Good (PCS (print•contrast•signal) of 0.6 or more was evaluated as “good,”) | Good (PCS (print•contrast•signal) of 0.6 or more was evaluated as “good,”) | Good (PCS (print•contrast•signal) of 0.6 or more was evaluated as “good,”) | Good (PCS (print•contrast•signal) of 0.6 or more was evaluated as “good,”) |  |
| CCCCCCCCN1/C(=C/C=C/C=C/C=C/C2=[N+](CCCCCCCC)c3ccc4ccccc4c3C2(C)C)C(C)(C)c2c1ccc1ccccc21.Cc1ccc(S(=O)(=O)[O-])cc1 [reference compound] | 43 | 21 |  |  |  |  |  | Bad (PCS (print•contrast•signal) of less than 0.6 was evaluated as “bad.”) |  |
